Assay results from the supplement of paper PMC11061612.

Experiments:
Test in all cases: Bliss excess, mean over the matrix (fraction); higher = more synergy
COLO-679 (Melanoma) = test system: COLO-679 (Melanoma)
Outline: (§1)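 Bliss excess equals the observed combination effect minus the expected value EA + EB − EA·EB, where EA and EB are the effects of each agent alone. Combination Emax is the second-highest inhibition within the matrix. Inhibition was scaled from CellTiter-Glo 2.0 luminescence, with 0 set by vehicle wells and 1 by blank wells, after 72 hours of two-drug dosing of cells plated in 1536-well plates.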

[1] = test system: NCI-H1355 (Lung Adenocarcinoma)
Outline: as §1

[2] = test system: Ca-Ski (Cervical Carcinoma)
Outline: as §1

[3] = test system: HAL-01 (B-Lymphoblastic Leukemia)
Outline: as §1

[4] = test system: MOLT-4 (T-Lymphoblastic Leukemia)
Outline: as §1

[5] = test system: EFO-21 (Ovarian Carcinoma)
Outline: as §1

[6] = test system: DU-145 (Prostate Carcinoma)
Outline: as §1

[7] = test system: SKN (Other Solid Carcinomas)
Outline: as §1

[8] = test system: A4-Fuk (B-Lymphoblastic Leukemia)
Outline: as §1

[9] = test system: KMRC-1 (Kidney Carcinoma)
Outline: as §1

[10] = test system: SW982 (Other Solid Carcinomas)
Outline: as §1

[11] = test system: MDA-MB-453 (Breast Carcinoma)
Outline: as §1

[12] = test system: OE33 (Esophageal Adenocarcinoma)
Outline: as §1

[13] = test system: ML-2 (Acute Myeloid Leukemia)
Outline: as §1

[14] = test system: Mo-T (Other Blood Carcinomas)
Outline: as §1

[15] = test system: MV-4-11 (Acute Myeloid Leukemia)
Outline: as §1

[16] = test system: NCI-H1993 (Lung Adenocarcinoma)
Outline: as §1

[17] = test system: SW872 (Other Solid Carcinomas)
Outline: as §1

[18] = test system: MOG-G-UVW (Low Grade Glioma)
Outline: as §1

[19] = test system: COLO-668 (Small Cell Lung Carcinoma)
Outline: as §1

Compound	Bliss excess (COLO-679 (Melanoma))	Bliss excess [1]	Bliss excess [2]	Bliss excess [3]	Bliss excess [4]	Bliss excess [5]	Bliss excess [6]	Bliss excess [7]	Bliss excess [8]	Bliss excess [9]	Bliss excess [10]	Bliss excess [11]	Bliss excess [12]	Bliss excess [13]	Bliss excess [14]	Bliss excess [15]	Bliss excess [16]	Bliss excess [17]	Bliss excess [18]	Bliss excess [19]
CN(CCO)CC[C@H](CSc1ccccc1)Nc1ccc(S(=O)(=O)NC(=O)c2ccc(N3CCC([C@@H](O)c4ccccc4-c4ccc(Cl)cc4)CC3)cc2)cc1S(=O)(=O)C(F)(F)F [AZD4320] + C1CN(CCC1(C(=O)N[C@@H](CCO)C2=CC=C(C=C2)Cl)N)C3=NC=NC4=C3C=CN4 [Capivasertib] (first compound max 1 µM, 7x7, partner max 3 µM)	-0.0431	-0.0648	0.0249	0.0022	0.0173	-0.0827	-0.0342	-0.0279	-0.0013	0.0094	-0.0426	-0.0534	-0.0575	-0.0659	-0.0137	0.0185	-0.0592	-0.0237	-0.0318	0.034
CN(CCO)CC[C@H](CSc1ccccc1)Nc1ccc(S(=O)(=O)NC(=O)c2ccc(N3CCC([C@@H](O)c4ccccc4-c4ccc(Cl)cc4)CC3)cc2)cc1S(=O)(=O)C(F)(F)F [AZD4320] + CC(=O)O[C@H]1C(=O)[C@@]2(C)[C@H]([C@H](OC(=O)c3ccccc3)[C@]3(O)C[C@H](OC(=O)[C@H](O)[C@@H](NC(=O)c4ccccc4)c4ccccc4)C(C)=C1C3(C)C)[C@]1(OC(C)=O)CO[C@@H]1C[C@@H]2O [Paclitaxel] (first compound max 1 µM, 7x7, partner max 3 µM)	-0.0012	0.0513	0.114	0.0634	0.0099	0.0978	0.0406	0.13	-0.0556	0.0095	0.0272	0.249	0.0836	-0.0009	0.163	0.0055	0.0851	-0.0047	-0.0104	0.125
CN(CCO)CC[C@H](CSc1ccccc1)Nc1ccc(S(=O)(=O)NC(=O)c2ccc(N3CCC([C@@H](O)c4ccccc4-c4ccc(Cl)cc4)CC3)cc2)cc1S(=O)(=O)C(F)(F)F [AZD4320] + CCN(CCO)CCCOc1ccc2c(Nc3cc(CC(=O)Nc4cccc(F)c4)[nH]n3)ncnc2c1 [AZD2811] (first compound max 1 µM, 7x7, partner max 1 µM)	0.0201	-0.0133	0.119	-0.0085	0.0322	-0.0616	-0.0341	0.0383	0.0624	-0.0359	0.0447	0.0154	-0.0398	0.0557	-0.003	0.0064	-0.0043	-0.0215	0.03	0.0302
CN(CCO)CC[C@H](CSc1ccccc1)Nc1ccc(S(=O)(=O)NC(=O)c2ccc(N3CCC([C@@H](O)c4ccccc4-c4ccc(Cl)cc4)CC3)cc2)cc1S(=O)(=O)C(F)(F)F [AZD4320] + C[C@@H]1COCCN1C2=NC(=NC(=C2)C3(CC3)[S@](=N)(=O)C)C4=C5C=CNC5=NC=C4 [AZD6738] (first compound max 1 µM, 7x7, partner max 10 µM)	-0.0266	-0.0273	-0.006	0.0405	-0.0084	-0.0312	-0.0335	-0.0394	-0.0169	-0.0358	-0.0374	-0.0453	-0.0295	0.0597	0.0358	-0.0066	-0.0073	-0.039	-0.0396	0.0325
CN(CCO)CC[C@H](CSc1ccccc1)Nc1ccc(S(=O)(=O)NC(=O)c2ccc(N3CCC([C@@H](O)c4ccccc4-c4ccc(Cl)cc4)CC3)cc2)cc1S(=O)(=O)C(F)(F)F [AZD4320] + C[C@@H](Nc1cc(F)cc(F)c1)c1cc(C(=O)N(C)C)cc2c(=O)cc(N3CCOCC3)oc12 [AZD8186] (first compound max 1 µM, 7x7, partner max 3 µM)	-0.0469	0.0082	0.0605	0.0337	-0.0129	0.0323	-0.0296	0.0522	0.0025	-0.0007	0.0078	0.02	-0.0082	0.0182	0.0075	0.0114	0.0156	0.0462	-0.086	0.0083
CN(CCO)CC[C@H](CSc1ccccc1)Nc1ccc(S(=O)(=O)NC(=O)c2ccc(N3CCC([C@@H](O)c4ccccc4-c4ccc(Cl)cc4)CC3)cc2)cc1S(=O)(=O)C(F)(F)F [AZD4320] + Cc1cc2ncnn2cc1Nc1ncc2c(n1)n(C1CCOCC1)c(=O)n2C [AZD7648] (first compound max 1 µM, 7x7, partner max 10 µM)	-0.0351	-0.052	-0.0243	0.0071	0.0422	-0.0461	-0.0355	-0.0249	-0.0211	-0.0618	0.0065	-0.0409	-0.0489	-0.0141	-0.0057	-0.0133	-0.0205	-0.0262	-0.0412	-0.0431
CN(CCO)CC[C@H](CSc1ccccc1)Nc1ccc(S(=O)(=O)NC(=O)c2ccc(N3CCC([C@@H](O)c4ccccc4-c4ccc(Cl)cc4)CC3)cc2)cc1S(=O)(=O)C(F)(F)F [AZD4320] + Cn1cnc2c(F)c(Nc3ccc(Br)cc3Cl)c(C(=O)NOCCO)cc21 [Selumetinib] (first compound max 1 µM, 7x7, partner max 3 µM)	0.0716	0.0529	0.0763	-0.0053	0.0365	-0.0084	0.0057	-0.0209	0.073	0.0167	-0.0042	-0.0218	0.0249	0.0723	0.0434	0.0513	-0.0307	0.0556	-0.0034	0.114
CN(CCO)CC[C@H](CSc1ccccc1)Nc1ccc(S(=O)(=O)NC(=O)c2ccc(N3CCC([C@@H](O)c4ccccc4-c4ccc(Cl)cc4)CC3)cc2)cc1S(=O)(=O)C(F)(F)F [AZD4320] + Nc1ccn([C@@H]2O[C@H](CO)[C@@H](O)C2(F)F)c(=O)n1 [Gemcitabine] (first compound max 1 µM, 7x7, partner max 0.3 µM)	-0.0226	-0.0349	0.0469	0.0448	-0.0209	0.0353	-0.033	0.0198	-0.0912	0.0287	0.0339	0.0093	-0.0527	0.0042	0.114	-0.023	-0.0164	0.0199	-0.0147	0.0417
Cc1c2c(nn1C)CSCc1cc(n(C)n1)CSc1cc(c3ccccc3c1)OCCCc1c(C(=O)O)n(C)c3c-2c(Cl)ccc13 [AZD5991] + Cn1cnc2c(F)c(Nc3ccc(Br)cc3Cl)c(C(=O)NOCCO)cc21 [Selumetinib] (first compound max 1 µM, 7x7, partner max 3 µM)	-0.0191	-0.0258	0.0502	0.062	0.0167	-0.0248	0.003	-0.0276	–	-0.0396	0.0248	0.0055	–	0.0659	-0.0167	0.0172	0.0043	-0.003	-0.0869	0.106
Cc1cc2ncnn2cc1Nc1ncc2c(n1)n(C1CCOCC1)c(=O)n2C [AZD7648] + C=CCn1c(=O)c2cnc(Nc3ccc(N4CCN(C)CC4)cc3)nc2n1-c1cccc(C(C)(C)O)n1 [AZD1775] (first compound max 10 µM, partner max 1 µM)	-0.0446	-0.0276	-0.0255	0.183	0.0141	0.0175	-0.0341	-0.0103	-0.0655	0.0051	-0.0111	-0.0223	0.0062	-0.0199	-0.14	0.053	-0.0167	0.0554	-0.0301	-0.0151
Cc1cc2ncnn2cc1Nc1ncc2c(n1)n(C1CCOCC1)c(=O)n2C [AZD7648] + CCN(CCO)CCCOc1ccc2c(Nc3cc(CC(=O)Nc4cccc(F)c4)[nH]n3)ncnc2c1 [AZD2811] (first compound max 10 µM, 7x7, partner max 1 µM)	-0.0126	-0.0401	0.0387	0.0199	0.009	-0.0061	-0.0078	-0.033	0.0759	0.0039	-0.0569	-0.0013	-0.0315	-0.116	-0.0582	-0.0538	0.0171	0.0723	-0.027	0.0084
Cc1cc2ncnn2cc1Nc1ncc2c(n1)n(C1CCOCC1)c(=O)n2C [AZD7648] + CN(C)CCCOc1ccc(-c2ccc3ncc4c(c3c2)n(C2CCOCC2)c(=O)n4C)cn1 [AZD0156] (first compound max 10 µM, 7x7, partner max 1 µM)	-0.0259	-0.033	0.0424	-0.0058	0.0068	-0.0063	-0.0142	0.0229	0.0001	0.0106	-0.0471	0.0257	0.0005	-0.0154	-0.122	0.0291	-0.0225	0.0713	0.0206	-0.0252
N#Cc1cnc(Nc2cc(NC[C@H]3CNCCO3)c(C(F)(F)F)cn2)cn1 [SRA737] + C=CCn1c(=O)c2cnc(Nc3ccc(N4CCN(C)CC4)cc3)nc2n1-c1cccc(C(C)(C)O)n1 [AZD1775] (first compound max 10 µM, partner max 1 µM)	-0.107	-0.0046	0.117	0.0645	0.12	–	-0.0105	-0.0293	0.0277	-0.0048	0.0316	0.0927	0.0063	0.0592	-0.0097	0.0409	0.194	0.0756	0.0652	0.151
